In PubChem BioAssay (NCI):
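Growth conditions: 96-well plates. Treatment: test compound, 48 hours, 5 concentrations. Analysis: linear interpolation between bracketing concentrations; unreached endpoints set to highest concentration. TGI denotes the concentration required for complete inhibition of growth.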

What was measured:
Experiment in all cases: NCI-60 cell line screen, 48 h
786-0 renal = tested on: 786-0 renal
A498 renal = tested on: A498 renal
A549 NSCLC = tested on: A549 NSCLC
ACHN renal = tested on: ACHN renal
BT-549 breast = tested on: BT-549 breast
CAKI-1 renal = tested on: CAKI-1 renal
CCRF-CEM leukemia = tested on: CCRF-CEM leukemia
COLO 205 colon = tested on: COLO 205 colon
DU-145 prostate = tested on: DU-145 prostate
EKVX NSCLC = tested on: EKVX NSCLC
HCC-2998 colon = tested on: HCC-2998 colon
HCT-116 colon = tested on: HCT-116 colon
HCT-15 colon = tested on: HCT-15 colon
HL-60(TB) leukemia = tested on: HL-60(TB) leukemia
HOP-62 NSCLC = tested on: HOP-62 NSCLC
HS 578T breast = tested on: HS 578T breast
HT29 colon = tested on: HT29 colon
IGROV1 ovarian = tested on: IGROV1 ovarian
K-562 leukemia = tested on: K-562 leukemia
KM12 colon = tested on: KM12 colon
LOX IMVI melanoma = tested on: LOX IMVI melanoma
M14 melanoma = tested on: M14 melanoma
MALME-3M melanoma = tested on: MALME-3M melanoma
MCF7 breast = tested on: MCF7 breast
MDA-MB-435 = tested on: MDA-MB-435
MDA-N = tested on: MDA-N
MOLT-4 leukemia = tested on: MOLT-4 leukemia
NCI-H23 lung = tested on: NCI-H23 lung
NCI-H460 lung = tested on: NCI-H460 lung
NCI-H522 lung = tested on: NCI-H522 lung
NCI/ADR-RES ovarian = tested on: NCI/ADR-RES ovarian
OVCAR-3 ovarian = tested on: OVCAR-3 ovarian
OVCAR-4 ovarian = tested on: OVCAR-4 ovarian
OVCAR-5 ovarian = tested on: OVCAR-5 ovarian
OVCAR-8 ovarian = tested on: OVCAR-8 ovarian
PC-3 prostate = tested on: PC-3 prostate
RPMI-8226 leukemia = tested on: RPMI-8226 leukemia
SF-268 CNS = tested on: SF-268 CNS
SF-295 CNS = tested on: SF-295 CNS
SF-539 CNS = tested on: SF-539 CNS
SK-MEL-2 melanoma = tested on: SK-MEL-2 melanoma
SK-MEL-28 melanoma = tested on: SK-MEL-28 melanoma
SK-MEL-5 melanoma = tested on: SK-MEL-5 melanoma
SK-OV-3 ovarian = tested on: SK-OV-3 ovarian
SNB-19 CNS = tested on: SNB-19 CNS
SR leukemia = tested on: SR leukemia
SW-620 colon = tested on: SW-620 colon
T-47D breast = tested on: T-47D breast
U251 CNS = tested on: U251 CNS
UACC-257 melanoma = tested on: UACC-257 melanoma
UACC-62 melanoma = tested on: UACC-62 melanoma
UO-31 renal = tested on: UO-31 renal
HOP-92 NSCLC = tested on: HOP-92 NSCLC
MDA-MB-231 breast = tested on: MDA-MB-231 breast
RXF 393 renal = tested on: RXF 393 renal
SN12C renal = tested on: SN12C renal
SNB-75 CNS = tested on: SNB-75 CNS
TK-10 renal = tested on: TK-10 renal

With `CN1CCN(Cc2ccc(C(=S)Nc3ccccc3)s2)CC1` the TGI (786-0 renal) was over 100 µM, the TGI (A498 renal) was over 100 µM and the TGI (A549 NSCLC) was over 100 µM. The TGI (ACHN renal) was over 100 µM, the TGI (BT-549 breast) was 76.3 µM and the TGI (CAKI-1 renal) was over 100 µM. For the same compound, the TGI (CCRF-CEM leukemia) was over 100 µM, the TGI (COLO 205 colon) was 45.9 µM and the TGI (DU-145 prostate) was over 100 µM. It also gave a TGI (EKVX NSCLC) of over 100 µM, a TGI (HCC-2998 colon) of over 100 µM and a TGI (HCT-116 colon) of over 100 µM. The TGI (HCT-15 colon) was 55.4 µM, the TGI (HL-60(TB) leukemia) was over 100 µM and the TGI (HOP-62 NSCLC) was over 100 µM. The TGI (HS 578T breast) was over 100 µM, the TGI (HT29 colon) was 47.1 µM and the TGI (IGROV1 ovarian) was 75.8 µM. For the same compound, the TGI (K-562 leukemia) was 95.9 µM, the TGI (KM12 colon) was over 100 µM and the TGI (LOX IMVI melanoma) was 31.9 µM. It also gave a TGI (M14 melanoma) of 31.9 µM, a TGI (MALME-3M melanoma) of over 100 µM and a TGI (MCF7 breast) of over 100 µM. It also gave a TGI (MDA-MB-435) of over 100 µM, a TGI (MDA-N) of over 100 µM and a TGI (MOLT-4 leukemia) of over 100 µM. It also gave a TGI (NCI-H23 lung) of 61.8 µM, a TGI (NCI-H460 lung) of over 100 µM and a TGI (NCI-H522 lung) of over 100 µM. It also gave a TGI (NCI/ADR-RES ovarian) of over 100 µM, a TGI (OVCAR-3 ovarian) of over 100 µM and a TGI (OVCAR-4 ovarian) of over 100 µM. For the same compound, the TGI (OVCAR-5 ovarian) was over 100 µM, the TGI (OVCAR-8 ovarian) was over 100 µM and the TGI (PC-3 prostate) was over 100 µM. The TGI (RPMI-8226 leukemia) was over 100 µM, the TGI (SF-268 CNS) was over 100 µM and the TGI (SF-295 CNS) was over 100 µM. It also gave a TGI (SF-539 CNS) of over 100 µM, a TGI (SK-MEL-2 melanoma) of over 100 µM and a TGI (SK-MEL-28 melanoma) of 36.1 µM. For the same compound, the TGI (SK-MEL-5 melanoma) was 34.1 µM, the TGI (SK-OV-3 ovarian) was over 100 µM and the TGI (SNB-19 CNS) was over 100 µM. For the same compound, the TGI (SR leukemia) was 73 µM, the TGI (SW-620 colon) was over 100 µM and the TGI (T-47D breast) was over 100 µM. The TGI (U251 CNS) was over 100 µM, the TGI (UACC-257 melanoma) was over 100 µM and the TGI (UACC-62 melanoma) was 41.3 µM. It also gave a TGI (UO-31 renal) of over 100 µM.
For `c1csc(-c2cc(-c3ccsc3)cs2)c1`, the TGI (786-0 renal) was over 100 µM, the TGI (A498 renal) was over 100 µM and the TGI (A549 NSCLC) was over 100 µM. The TGI (ACHN renal) was over 100 µM, the TGI (BT-549 breast) was over 100 µM and the TGI (CAKI-1 renal) was over 100 µM. It also gave a TGI (CCRF-CEM leukemia) of over 100 µM, a TGI (COLO 205 colon) of over 100 µM and a TGI (DU-145 prostate) of over 100 µM. It also gave a TGI (EKVX NSCLC) of over 100 µM, a TGI (HCC-2998 colon) of over 100 µM and a TGI (HCT-116 colon) of over 100 µM. The TGI (HCT-15 colon) was over 100 µM, the TGI (HL-60(TB) leukemia) was over 100 µM and the TGI (HOP-62 NSCLC) was over 100 µM. It also gave a TGI (HOP-92 NSCLC) of over 100 µM, a TGI (HS 578T breast) of over 100 µM and a TGI (HT29 colon) of over 100 µM. For the same compound, the TGI (IGROV1 ovarian) was over 100 µM, the TGI (K-562 leukemia) was over 100 µM and the TGI (KM12 colon) was over 100 µM. For the same compound, the TGI (LOX IMVI melanoma) was over 100 µM, the TGI (M14 melanoma) was over 100 µM and the TGI (MCF7 breast) was over 100 µM. The TGI (MDA-MB-231 breast) was over 100 µM, the TGI (MDA-MB-435) was over 100 µM and the TGI (MDA-N) was over 100 µM. The TGI (MOLT-4 leukemia) was over 100 µM, the TGI (NCI-H23 lung) was 93.8 µM and the TGI (NCI-H460 lung) was over 100 µM. For the same compound, the TGI (NCI/ADR-RES ovarian) was over 100 µM, the TGI (OVCAR-3 ovarian) was over 100 µM and the TGI (OVCAR-4 ovarian) was over 100 µM. For the same compound, the TGI (OVCAR-5 ovarian) was over 100 µM, the TGI (PC-3 prostate) was over 100 µM and the TGI (RPMI-8226 leukemia) was over 100 µM. The TGI (RXF 393 renal) was over 100 µM, the TGI (SF-268 CNS) was over 100 µM and the TGI (SF-295 CNS) was over 100 µM. For the same compound, the TGI (SF-539 CNS) was over 100 µM, the TGI (SK-MEL-2 melanoma) was over 100 µM and the TGI (SK-MEL-28 melanoma) was over 100 µM. The TGI (SK-MEL-5 melanoma) was over 100 µM, the TGI (SK-OV-3 ovarian) was over 100 µM and the TGI (SN12C renal) was over 100 µM. It also gave a TGI (SNB-75 CNS) of over 100 µM, a TGI (SR leukemia) of over 100 µM and a TGI (SW-620 colon) of over 100 µM. It also gave a TGI (T-47D breast) of over 100 µM, a TGI (TK-10 renal) of over 100 µM and a TGI (U251 CNS) of over 100 µM. It also gave a TGI (UACC-257 melanoma) of over 100 µM, a TGI (UACC-62 melanoma) of over 100 µM and a TGI (UO-31 renal) of over 100 µM.
